Patent US6362211B1, “Polycyclic indanylimidazoles with alpha2 adrenergic activity” (Orion Corporation, priority 2000, dated 2002)

system: Alpha2 Adrenoceptors (alpha2AR); test: Antagonist activity on alpha2 adrenoceptors in rat vas deferens in vitro (electrically evoked twitch response); type: cell-based; details: isolated rat vas deferens, field stimulation; antagonist given at least five minutes before alpha2AR agonist
Procedure: Antagonist Activity on Alpha2 Adrenoceptors (alpha2AR) in Rat Vas Deferens in Vitro
Rats were killed by CO2-suffocation. Vas deferentia were dissected out and both prostatic halves were removed to tissue chambers containing Krebs-solution of the following composition (mM): NaCl 118, KCl 4.7, CaCl2 2.5, KH2PO4 1.2, MgSO4 0.6, NaHCO3 25, glucose 11.1, aerated by 5% carbogen, temperature 37° C., pH 7.4. Propranolol […] and desipramine […] were added to prevent the possible effects on […] receptors and to prevent re-uptake of released norepinephrine, respectively. Preparations were tied to the bottom hooks of the incubation chambers and the to isometric force-displacement transducers above. Electrical stimulation was started after the equilibrium period/5 minutes under a resting tension of 0.5 g) by introducing field stimulation with the following parameters: twin-pulses, voltage 70 V, frequency 0.2 Hz, delay 5 ms, duration 2 ms. […] Inhibition of the electrically evoked contractions was measured as the response to alpha2AR agonists. Antagonist was administered into the incubation medium at least five minutes before agonist. Means±SEM of percentage inhibition were calculated in the absence and in the presence of antagonist and expressed as dose-response curves. In order to express the antagonist potency, pA2-value was calculated.

Structure (SMILES) | Vas deferens Alpha2 antagonistic activity, pA2
C=C1CCC2(c3c[nH]cn3)Cc3ccccc3C12 (stereo not shown) [2(a), 4-(3-Methylene-2,3,3a,8-tetrahydro-1H-cyclopenta[a]inden-8a-yl)-1H-imidazole] | pA2 = 7.8
c1ccc2c(c1)CC1(c3c[nH]cn3)CCCCC21 (stereo not shown) [3(i), 4-(4b,5,6,7,8,9-Hexahydrofluoren-8a-yl)-1H-imidazole] | pA2 = 8.2
c1ccc2c(c1)CC1(c3c[nH]cn3)CCCC21 (stereo not shown) [Example 1(e), 4-(2,3,3a,8-Tetrahydro-1H-cyclopenta[a]inden-8a-yl)-1H-imidazole] | pA2 = 8.4
CC1CCC2(c3c[nH]cn3)Cc3ccccc3C12 (stereo not shown) [Example 2(b), 4-(3-Methyl-2,3,3a,8-tetrahydro-1H-cyclopenta[a]inden-8a-yl)-1H-imidazole] | pA2 = 7.4
Fc1ccc2c(c1)C1CCCCC1(c1c[nH]cn1)C2 (stereo not shown) [Example 4, 4-(3-Fluoro-4b,5,6,7,8,9-hexahydrofluoren-8a-yl)-1H-imidazole] | pA2 = 7.4
COc1ccc2c(c1)C1CCCCC1(c1c[nH]cn1)C2 (stereo not shown) [Example 5(a), 4-(3-Methoxy-4b,5,6,7,8,9-hexahydrofluoren-8a-yl)-1H-imidazole] | pA2 = 6.9
Oc1ccc2c(c1)C1CCCCC1(c1c[nH]cn1)C2 (stereo not shown) [Example 5(b), 8a-(1H-Imidazol-4-yl)-5,6,7,8,8a,9-hexahydro-4bH-fluoren-3-ol] | pA2 = 7.7
OCCOCCOc1ccc2c(c1)C1CCCCC1(c1c[nH]cn1)C2 (stereo not shown) [Example 6, 2-{2-[8a-(1H-Imidazol-4-yl)-5,6,7,8,8a,9-hexahydro-4bH-fluoren-3-yloxy]-ethoxy}-ethanol] | pA2 = 6.0
c1ccc2c(c1)CC1(c3c[nH]cn3)C3CCC(CC3)C21 (stereo not shown) [Example 7(f), 4-(5,8-Ethano-4b,5,6,7,8,9-hexahydro-fluoren-8a-yl)-1H-imidazole] | pA2 = 5.3
c1ccc2c(c1)CC1(c3c[nH]cn3)Cc3ccccc3C21 (stereo not shown) [Example 8, 4-(4b,10-Dihydro-9H-indeno[1,2-a]inden-9a-yl)-1H-imidazole] | pA2 = 7.4
